Earlier results, collected in patent EP0438873A1, “Inhibitor of ribonucleotide reductase of herpes viruses” (MERCK & CO. INC., priority 1989, dated 1991).
Where no end group is shown, it is not given here.

Test system: ribonucleotide reductase enzyme of herpes simplex virus
Details: from Dutia et al., Cohen et al., U.S. Patent No. 4,795,740

Substance | inhibited in vitro the activity of this enzyme (HSV ribonucleotide reductase)
Tyr Ala Gly Ala Val Val Asn Asp Leu (YAGAVVNDL; printed: Tyr Ala Gly Ala Val Val Asn Asp Leu) [the nonapeptide disclosed by Dutia et al. and Cohen et al] | inhibited
YGAVVNDL [8-desalanine homolog of the nonapeptide, disclosed by Dutia et al] | inhibited
